This passage reports IC50 results from BindingDB's records for doi:10.1021/jm300579z (Merck Research Laboratories, 2012).

The test addresses Pituitary adenylate cyclase-activating polypeptide type I receptor (Homo sapiens) (UniProt P41586). The test can be described thus: Antagonist activity at human PAC1 expressed in mouse […] 3T3 cells assessed as inhibition of glucagon-induced cAMP accumulation preincubated for 30 mins prior to glucagon challenge measured after 30 mins post glucagon challenge by liquid scintillation counter.

Chain of Pituitary adenylate cyclase-activating polypeptide type I receptor (Homo sapiens) (P41586 whole entry, looked up): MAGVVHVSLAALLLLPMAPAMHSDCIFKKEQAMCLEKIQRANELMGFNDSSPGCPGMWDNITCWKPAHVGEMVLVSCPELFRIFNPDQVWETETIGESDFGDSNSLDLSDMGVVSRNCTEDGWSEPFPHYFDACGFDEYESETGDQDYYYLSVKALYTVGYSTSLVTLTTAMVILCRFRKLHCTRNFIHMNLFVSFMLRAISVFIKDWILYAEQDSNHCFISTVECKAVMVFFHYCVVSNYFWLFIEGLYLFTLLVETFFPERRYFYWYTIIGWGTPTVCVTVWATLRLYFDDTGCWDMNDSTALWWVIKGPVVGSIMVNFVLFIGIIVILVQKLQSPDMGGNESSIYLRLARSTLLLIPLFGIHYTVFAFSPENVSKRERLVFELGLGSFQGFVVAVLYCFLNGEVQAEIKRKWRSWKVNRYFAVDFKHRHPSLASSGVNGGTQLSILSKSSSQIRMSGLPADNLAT

In the case of `COc1ccc2cc(-c3cc(-c4cc(Cl)cc(Cl)c4)nn3[C@@H](C)c3ccc(C(=O)NCCC(=O)O)cc3)ccc2c1`, the IC50 (as a rule, the midpoint of a concentration-inhibition curve) was 9.2 µM.
